From patent US20020035061A1, “COMPOSITIONS AND METHODS FOR TREATING INFECTIONS USING CATIONIC PEPTIDES ALONE OR IN COMBINATION WITH ANTIBIOTICS” (priority 1996, published 2002)

Key:
[1] = tested on: microorganisms with acquired resistance; assay: microbe, parasite or virus in culture; format: cell-based
[2] = tested on: bacterial isolates; assay: microbe, parasite or virus in culture; format: cell-based

Work on KWKSFIKKLTSAAKKVVTTAKPLISS [MBI 26] yielded an FIC ([1]; peptide + Ciprofloxacin, A. calcoaceticus 5) of 0.38, an FIC ([1]; peptide + Ciprofloxacin, E. cloacae 16) of 0.38 and an FIC ([1]; peptide + Ciprofloxacin, E. cloacae 17) of 0.38. The FIC ([1]; peptide + Ciprofloxacin, P. aeruginosa 30) was 0.09, the FIC ([1]; peptide + Ciprofloxacin, P. aeruginosa 31) was 0.27 and the FIC ([1]; peptide + Ciprofloxacin, P. aeruginosa PA41) was 0.50. The FIC ([1]; peptide + Ciprofloxacin, P. aeruginosa PA77) was 0.56, the FIC ([1]; peptide + Ciprofloxacin, S. maltophilia 34) was 0.25 and the FIC ([1]; peptide + Ciprofloxacin, S. maltophilia 35) was 0.50. The FIC ([1]; peptide + Gentamicin, A. baumannii ABI001) was 0.56, the FIC ([1]; peptide + Gentamicin, A. baumannii ABI002) was 0.53 and the FIC ([1]; peptide + Gentamicin, P. aeruginosa PA023) was 0.75. It also gave an FIC ([1]; peptide + Gentamicin, P. aeruginosa PA041) of 0.75, an FIC ([1]; peptide + Gentamicin, S. maltophilia SMA017) of 0.52 and an FIC ([1]; peptide + Gentamicin, S. maltophilia SMA019) of 0.53. For the same sequence, the FIC ([1]; peptide + Piperacillin, A. calcoaceticus 2) was 0.50, the FIC ([1]; peptide + Piperacillin, A. calcoaceticus 7) was 0.25 and the FIC ([1]; peptide + Piperacillin, E. cloacae 13) was 0.16. The FIC ([1]; peptide + Piperacillin, E. cloacae 19) was 0.31, the FIC ([1]; peptide + Piperacillin, H. influenzae 1) was 0.19 and the FIC ([1]; peptide + Piperacillin, H. influenzae 2) was 0.19. For the same sequence, the FIC ([1]; peptide + Piperacillin, P. aeruginosa 7) was 0.25, the FIC ([1]; peptide + Piperacillin, P. aeruginosa 23) was 0.27 and the FIC ([1]; peptide + Piperacillin, P. aeruginosa 26) was 0.56. It also gave an FIC ([1]; peptide + Piperacillin, S. maltophilia 2) of 0.75, an FIC ([1]; peptide + Piperacillin, S. maltophilia 4) of 0.63 and an FIC ([1]; peptide + Piperacillin, S. maltophilia 35) of 0.26. It also gave an FIC ([1]; peptide + Piperacillin, S. maltophilia 41) of 0.52, an FIC ([1]; peptide + Piperacillin, S. marcescens 1) of 0.09 and an FIC ([1]; peptide + Tobramycin, P. aeruginosa PA031) of 0.75. It also gave an FIC ([1]; peptide + Tobramycin, S. epidermidis SE068) of 0.27, an FIC ([1]; peptide + Tobramycin, S. epidermidis SE071) of 0.50 and an FIC ([1]; peptide + Tobramycin, S. maltophilia SMA027) of 0.50. For the same sequence, the “Peptide MIC Alone” value ([2]; 1. Amikacin, A. baumannii ABI001) was 8 µg/mL, the “Peptide MIC Alone” value ([2]; 1. Amikacin, A. baumannii ABI003) was 8 µg/mL and the “Peptide MIC Alone” value ([2]; 1. Amikacin, S. maltophilia SMA021) was 32 µg/mL. For the same sequence, the “Peptide MIC Alone” value ([2]; 1. Amikacin, S. maltophilia SMA037) was >128 µg/mL, the “Peptide MIC Alone” value ([2]; 2. Ceftriaxone, A. baumannii ABI002) was 8 µg/mL and the “Peptide MIC Alone” value ([2]; 2. Ceftriaxone, A. baumannii ABI005) was 2 µg/mL. The “Peptide MIC Alone” value ([2]; 2. Ceftriaxone, B. cepacia BC003) was >128 µg/mL, the “Peptide MIC Alone” value ([2]; 2. Ceftriaxone, E. cloacae ECL014) was 8 µg/mL and the “Peptide MIC Alone” value ([2]; 2. Ceftriaxone, E. cloacae ECL015) was 32 µg/mL. For the same sequence, the “Peptide MIC Alone” value ([2]; 2. Ceftriaxone, K. pneumoniae KP003) was 16 µg/mL, the “Peptide MIC Alone” value ([2]; 2. Ceftriaxone, P. aeruginosa PA008) was 128 µg/mL and the “Peptide MIC Alone” value ([2]; 2. Ceftriaxone, P. aeruginosa PA024) was 128 µg/mL. The “Peptide MIC Alone” value ([2]; 2. Ceftriaxone, S. aureus SA025 MRSA) was 1 µg/mL, the “Peptide MIC Alone” value ([2]; 2. Ceftriaxone, S. epidermidis SE007) was 32 µg/mL and the “Peptide MIC Alone” value ([2]; 2. Ceftriaxone, S. epidermidis SE012) was 64 µg/mL. For the same sequence, the “Peptide MIC Alone” value ([2]; 2. Ceftriaxone, S. maltophilia SMA019) was 4 µg/mL, the “Peptide MIC Alone” value ([2]; 2. Ceftriaxone, S. maltophilia SMA020) was 4 µg/mL and the “Peptide MIC Alone” value ([2]; 3. Ciprofloxacin, A. calcoaceticus 1) was >64 µg/mL. The “Peptide MIC Alone” value ([2]; 3. Ciprofloxacin, A. calcoaceticus 6) was >32 µg/mL, the “Peptide MIC Alone” value ([2]; 3. Ciprofloxacin, E. cloacae 13) was >128 µg/mL and the “Peptide MIC Alone” value ([2]; 3. Ciprofloxacin, E. cloacae 15) was >32 µg/mL. The “Peptide MIC Alone” value ([2]; 3. Ciprofloxacin, E. cloacae 16) was >32 µg/mL, the “Peptide MIC Alone” value ([2]; 3. Ciprofloxacin, P. aeruginosa 23) was >32 µg/mL and the “Peptide MIC Alone” value ([2]; 3. Ciprofloxacin, P. aeruginosa 24) was >32 µg/mL. The “Peptide MIC Alone” value ([2]; 3. Ciprofloxacin, P. aeruginosa PA41) was 128 µg/mL, the “Peptide MIC Alone” value ([2]; 3. Ciprofloxacin, P. aeruginosa PA77) was 128 µg/mL and the “Peptide MIC Alone” value ([2]; 3. Ciprofloxacin, S. aureus SA11) was 128 µg/mL. The “Peptide MIC Alone” value ([2]; 3. Ciprofloxacin, S. maltophilia 34) was >32 µg/mL.
